Measurements published in patent publication US20110110890A1, “Novel Inhibitors of Hepatitis C Virus Replication” (INTERMUNE, INC., priority 2009, published 2011).

What was measured:
HCV Replicon = HCV Replicon inhibition; format: cell-based; conditions: Hepatitis C virus
HCV NS5B polymerase = target: T1, HCV NS5B polymerase (Hepatitis C virus genotype 1a, UniProt P27958); test: Replizyme HCV heterotemplate radioactive RNA-dependent RNA-polymerase (RdRp) assay; format: biochemical; conditions: pre-incubated 30 minutes at 37° C., reaction 90 minutes at 37° C.; read-out: HCV NS5B inhibition EC50
T1 construct: pre-incubated with the RNA template and NS5B polymerase protein; purchased Replizyme
T1 sequence (P27958 2421-3011): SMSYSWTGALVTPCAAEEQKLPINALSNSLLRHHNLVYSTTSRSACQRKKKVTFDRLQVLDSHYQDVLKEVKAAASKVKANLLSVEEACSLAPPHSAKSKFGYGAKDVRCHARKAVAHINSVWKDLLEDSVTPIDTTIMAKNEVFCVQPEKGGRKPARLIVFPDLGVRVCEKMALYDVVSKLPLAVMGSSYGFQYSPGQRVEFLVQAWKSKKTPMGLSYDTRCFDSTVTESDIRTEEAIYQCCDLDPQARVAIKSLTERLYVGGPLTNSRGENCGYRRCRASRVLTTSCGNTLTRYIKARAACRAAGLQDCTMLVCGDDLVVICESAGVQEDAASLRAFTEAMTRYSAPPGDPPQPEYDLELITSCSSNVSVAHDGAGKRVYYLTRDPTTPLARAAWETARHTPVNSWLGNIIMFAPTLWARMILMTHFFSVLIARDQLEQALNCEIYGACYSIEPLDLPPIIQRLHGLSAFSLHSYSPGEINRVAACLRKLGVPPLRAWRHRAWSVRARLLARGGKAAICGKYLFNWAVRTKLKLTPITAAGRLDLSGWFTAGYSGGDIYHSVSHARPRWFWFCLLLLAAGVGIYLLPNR
Description: The compounds were tested in the Replizyme HCV heterotemplate radioactive RNA-dependent RNA-polymerase (RdRp) assay. The test compounds were pre-incubated with the RNA template and NS5B polymerase protein at 37° C. for 30 minutes. The RdRp reaction was initiated with the addition of the NTPs to the buffer-NS5B-compound mix, and was allowed to proceed for 90 minutes at 37° C. Control reactions included: no enzyme, 5% DMSO (test compound solvent), no compound/solvent, Cordycepin-TP and HCV-796 (IC50 values used as a reference inhibition). Radioactive products were collected by applying the stopped reaction to DE-81 paper, air dried prior to washing with buffer comprising NaH2PO4 and sodium pyrophosphate to remove unincorporated ^32P-GTP in the NTP mix, and rinsed with dH2O followed by 100% ethanol. The DE-81 paper was air dried, squares cut out and placed in scintillation tubes for counting.

CC(C)(C)CCc1c(=O)c(C2=NS(=O)(=O)c3cc(NS(C)(=O)=O)ccc3N2)c(O)n2cc(F)ccc12 [Compound 104S]
EC50 (HCV Replicon): < 100 nM | EC50 (HCV NS5B polymerase): < 100 nM

CS(=O)(=O)Nc1ccc2c(c1)S(=O)(=O)N=C(c1c(O)n3ccccc3c(Cc3cc(F)cc(F)c3)c1=O)N2 [Compound 105S]
EC50 (HCV Replicon): < 100 nM | EC50 (HCV NS5B polymerase): < 100 nM

CS(=O)(=O)Nc1ccc2c(c1)S(=O)(=O)N=C(c1c(O)n3cc(F)ccc3c(Cc3ccc(F)c(F)c3)c1=O)N2 [Compound 102S]
EC50 (HCV Replicon): < 100 nM | EC50 (HCV NS5B polymerase): < 100 nM

CS(=O)(=O)Nc1ccc2c(c1)S(=O)(=O)N=C(c1c(O)n3cc(F)ccc3c(Cc3cc(F)cc(F)c3)c1=O)N2 [Compound 101]
EC50 (HCV Replicon): < 100 nM | EC50 (HCV NS5B polymerase): < 100 nM

CS(=O)(=O)Nc1ccc2c(c1)S(=O)(=O)N=C(c1c(O)n3cc(F)ccc3c(Cc3ccc(F)cc3)c1=O)N2 [Compound 103S]
EC50 (HCV Replicon): < 100 nM | EC50 (HCV NS5B polymerase): < 100 nM
